From patent US20100310459A1, “Targeted Detection of Dysplasia In Barrett's Esophagus With A Novel Fluorescence-Labeled Polypeptide” (THE REGENTS OF THE UNIVERSITY OF MICHIGAN, priority 2009, published 2010) come the findings set out here.

Primed or numbered codes have the meaning given here. Where no end group is shown, it is not given here. FITC′ = not defined here

Experiment [1] deals with OE33 esophageal adenocarcinoma cells. Kind of experiment: Competitive inhibition assay (peptide vs SNFYMPL-phage). Type of experiment: cell-based, human. Particulars: peptide at 100, 200, and 400 μM. On the procedure:
Competitive inhibition assay. The OE33 and Q-hTERT cells were detached and blocked. […] pfu of SNFYMPL-phage was incubated with OE33 cells (1×10^7) or Q-hTERT cells (1×10^7), ‘SNFYMPL-GGGSK’ peptide or scrambled peptide ‘NLMPYFS-GGGSK’ were added into cell-phage mixture at the concentration of 100, 200, and 400 μm for competition with the phage. After washing three times with PBS/0.1% (v/v) Tween-20 and one time with 0.2 M glycine, pH 2.2/0.1% BSA for two minutes, the bound phage were recovered and titered. Every sample was carried out in triplicate. The amount of bound phage in every sample was […].

Experiment [2] deals with Q-hTERT (intestinal metaplasia) cells. Kind of experiment: Target peptide binding to cell surface targets. The format is cell-based. The note with it: 100 μM.
Experiment [3] concerns 0E-21 (squamous) cells. Kind of experiment: Target peptide binding to cell surface targets. Type of experiment: cell-based. The note with it: 100 μM.
Experiment [4] has as its system SEG1 (adenocarcinoma) cells. Kind of experiment: Target peptide binding to cell surface targets. Type of experiment: cell-based. The note with it: 100 μM. On the procedure:
Identification of plasma membrane targets on adenocarcinoma cells that affinity bind to “ASYNYDA” (SEQ ID NO: 5). The carboxyl end of the target peptide was linked to affinity column beads using EDC chemistry. Seg-1 cells were grown to confluency, lysed by sonification, and fractionated by centrifugation. The resulting membrane fractions were applied to the target peptide labeled column and specific binding proteins were eluted. These proteins were separated and collected in fractions by a reverse phase column using a Beckman PF 2D liquid chromatography apparatus. The protein fractions were spotted on a nitrocellulose coated micro array printer slide and probed with the FITC-labeled target peptide. The fluorescence intensities at each spot were quantified with an Axon Imager. Protein fractions with the highest intensity were trypsinized, and proteomic analysis was performed using a Finnigan LTQ linear ion trap mass spectrometer. The protein identities were confirmed using an International Protein Index (IPI) database search, utilizing the SEQUEST program and with open source Xtandem and peptide and protein prophet software. […] See Table 1 below for list of targets identified. All identified proteins were either an exact match or >0.99.

Experiment [5] relates to OE33 (esophageal adenocarcinoma) cells. As to the kind of experiment: Fluorescence images for peptide binding on culture cells. The format is cell-based, human. The note with it: for intensity associated with binding to the cell surface: OE33. The protocol: (§1) Fluoresence images for peptide binding on culture cells. The OE33 and QhTERT cells were grown in chamber slides to 80% confluence. Blocking of non-specific binding to these cells was performed by adding 200 μl of 1% BSA diluted in PBS for 30 min. The cells were then incubated with […] of the candidate FITC-labeled peptide in serum free media for 10 minutes at room temperature. The cells were washed 3 times using 200 μL PBS/0.5% TWEEN 20 in room temperature. The cells were fixed in ice cold 4% praformaldehyde for 5 minutes. The cells were then stained with Vectashield mounting medium containing DAPI. Fluorescence images were collected with a confocal microscope (Nikon 1000) at 200×. The fluorescence intensity from the cells in 3 images was averaged to assess for peptide binding using NIH Image J software.

Experiment [6] concerns Q-hTERT (intestinal metaplasia) cells. The experiment is described as above. The format is cell-based. On the procedure:
as §1

In experiment [7] the test system is Human endoscopic mucosal resection (EMR) specimens of esophageal mucosa. Kind of experiment: Fluorescence-labeled polypeptide binding to endoscopic mucosal resection (EMR) specimens. The note with it: for mean fluorescence intensity value: 100 μm, 5 minutes. On the procedure:
Human endoscopic mucosal resection (EMR) specimens were freshly taken from regions of suspected dysplastic mucosa. Each specimen was incubated with the FITC-labeled polypeptide of SEQ ID NO: 1 at a concentration of 100 μm for 5 minutes. Ink was used to mark the 12 o'clock position for orientation. White light stereo microscope (Olympus SZX16) images were obtained with an overlying 20×20 mm grid to register the histology. Fluorescence images were obtained at an exposure of 12 ms. The tissue was then fixed in formalin. An expert GI pathologist sectioned the specimens along cross-sections at ˜2 mm intervals longitudinally and interpreted the histopathology while blinded to the fluorescence images. The mean intensity of the fluorescence images in each 1 mm interval was measured using the NIH Image J processing software and compared with histology.

“NLMPYFS-GGGSK (NLMPYFSGGGSK) [scrambled control peptide, reference compound]”: the “inhibition of SNFYMPL-phage binding to OE33 cells” value in experiment [1] is on record as “no inhibition ability”; in experiment [1] (listed as scrambled peptide ‘NLMPYFS’), “did not inhibit”.
Consider ASYNYDA, for which the “binding to cell surface targets” value in experiment [2] is “lack of binding”; in experiment [3], “lack of binding”; in experiment [4], “preferential binding”.
As for “SNFYMPL-GGGSK-FITC (SNFYMPLGGGSK-{FITC′}) [FITC conjugated at the C-terminus of SNFYMPL via the GGGSK linker]”, the “intensity associated with binding to the cell surface” value in experiment [5] (FIG. 3 legend) was determined as 69±18; in experiment [5] (NIH Image J) it was 69 mean grey value; in experiment [6] (FIG. 3 legend), 25.7±2.5; in experiment [6] (NIH Image J), 25.7 mean grey value. Besides, in experiment [5] (OE33 cells, FITC-labeled peptide, 10 minutes), the “cells with peptide bound to the plasma membrane” value is given as > 90%. The “mean fluorescence intensity value” in experiment [7] (dysplasia (n=69 sites)) came out at 56.5 gray levels; in experiment [7] (gastric mucosa (n=35 sites)), 24.1 gray levels; in experiment [7] (intestinal metaplasia (n=66 sites)) it was 42.1 gray levels; in experiment [7] (squamous (n=107 sites)), 27.1 gray levels. Besides, the “binding to Barrett's dysplasia” value in experiment [7] (mucosal surface areas on the centimeter scale) is given as “Selective binding”.
As to SNFYMPL-GGGSK, the “inhibition of SNFYMPL-phage binding to OE33 cells” value is given as “could obviously inhibit” in experiment [1] and “significantly inhibited the SNFYMPL-phage binding to the OE33 cells in a concentration dependent manner” in experiment [1] (listed as ‘SNFYMPL’ peptide).
